This is an account of results in US8236827B2, “Compounds” (Spear Therapeutics Limited, priority 2009, dated 2012).

In data set [1] the test system is wild-type CHO cells. The data set is described as follows: Cytotoxicity (MTS) in wild-type CHO cells. Format: cell-based, Chinese Hamster. As to conditions: for IC50: Cricetulus griseus, CHO, 96 h, MTS. The procedure: CHO cells: Chinese Hamster Ovary (CHO) DUKXB11 cells were grown under standard cell culture conditions in α-MEM supplemented with 10% FCS, 1 unit/ml each of hypoxanthine and thymidine, and penicillin (100 IU/ml) and streptomycin (100 μg/ml) according to literature methods (Ding S, et al., Arch. Biochem. Biophys., 348: 403-410, 1997, the contents of which are incorporated herein by reference). Cells were grown at 37° C. in a humidified atmosphere plus 5% CO2.
(§1) A single cell suspension of CHO, CHO/CYP1A1 or CHO/CYP1B1 in 100 μl of the required cell culture medium was seeded onto 96-well plates at a cell density of 1500 cells per well and placed in an incubator for 24 h at 37° C. The stock solution of test compound in DMSO was then added to give a concentration range of 100, 30, 10, 3, 1, 0.3, 0.1, 0.03, 0.01, 0.003, 0.001, 0 μM. The final concentration of DMSO 0.2% was found not to affect the growth characteristics of the various CHO cell lines. The cells were incubated with the test compound for 96 h after which all the medium was aspirated and replaced with 100 μl of fresh medium to compensate for the loss of medium due to evaporation. The cells were incubated with 20 μl of the MTS assay reagent for 1.5 h and the absorbance per well at 510 nm measured using a plate reader. The mean absorbance and standard deviation for each test compound concentration was calculated versus a series of controls including (a) cells plus medium, (b) cell plus medium containing DMSO 0.2%, (c) medium alone, and (d) medium containing DMSO 0.2% and a range of test compound concentrations from 0 to 100 μM.
(§2) The MTS assay is a homogeneous, colorimetric method for determining the number of viable cells in proliferation, cytotoxicity or chemosensitivity assays (Cali J J, et al., “Luminescence-Based Methods and Probes for Measuring Cytochrome P450 Activity”, pp. 1-29. Promega Corporation, United States, 2004, the contents of which are incorporated herein by reference). The assay is composed of solutions of tetrazolium compound [3-(4,5-dimethylthiazol-2-yl)-5-(3-carboxymethoxyphenyl)-2-(4-sulfophenyl)-2H-tetrazolium, inner salt; MTS] and an electron coupling reagent (phenazine methosulfate) PMS. MTS is bioreduced by cells into a formazan product that is soluble in tissue culture medium. The absorbance of the formazan product at 510 nm can be directly measured from 96-well assay plates. The quantity of formazan product as measured by the amount of absorbance at 490 or 510 nm is directly proportional to the number of living cells in culture.

Data set [2] in a line: Cytotoxicity (MTS) in CHO/CYP1A1 cells. Format: cell-based, Chinese Hamster. Particulars: Chinese hamster; 96 h, MTS. The procedure: (§3) CHO/CYP1A1 and CHO/CYP1B1 cells: CHO cells containing recombinant CYP1A1 and recombinant CYP1B1 co-expressing P450 reductase, namely (CHO/CYP1A1) and (CHO/CYP1B1) respectively, were cultured using the standard culture medium for CHO cells supplemented with 0.4 mg/ml G418 disulfate salt and 0.3 μM methotrexate (Sigma/Aldrich Co., Gillingham, Dorset, UK) according to methods described in the literature (ibid.) Cells were grown at 37° C. in a humidified atmosphere plus 5% CO2.
as §1, §2

Data set [3] relates to CHO/CYP1A1 cells. Description: Cytotoxicity (MTS) in CHO/CYP1A1 cells. It is filed as cell-based, Chinese Hamster. The procedure: as §3, §1, §2
Data set [4] is described as follows: Cytotoxicity (MTS) in CHO/CYP1B1 cells. Format: cell-based, Chinese Hamster. As to conditions: Chinese hamster. The procedure:
as §3, §1, §2

Data set [5] relates to CHO/CYP1B1 cells. The data set is described as follows: Cytotoxicity (MTS) in CHO/CYP1B1 cells. Format: cell-based, Chinese Hamster. On the procedure:
as §3, §1, §2

Data set [6] has as its target CYP3A5 (Homo sapiens, UniProt P20815). The data set is described as follows: CYP phenotyping, metabolic stability. Particulars: CYP3A5 (10 pm/mL). Format: in vitro ADME. The procedure: (§4) As mentioned above, a feature of the compounds of the invention is their metabolism by CYP1B1 which is expressed at high frequency in a wide range of human cancers of different histogenetic types, but not in normal tissues. […] Compounds V and II were exposed to a panel of six CYPs (see Table 5 below).
(§5) CYP metabolism studies were performed by Cerep Laboratories (Redmond, Wash., USA). Compounds were screened in duplicate at 1 μM in the presence of CYP enzyme, NADP (1.3 mM), D-Glucose-6-phosphate (3.3 mM) and Glucose-6-phosphate dehydrogenase. Following incubation at 0 and 60 minutes, parent compound levels were determined using standard HPLC/MS/MS procedures. The results are expressed as percent parent compound remaining after 60 minutes.

In data set [7] the target is T1, CYP1A2 (Homo sapiens, UniProt P05177).
T1 sequence (P05177 1-516): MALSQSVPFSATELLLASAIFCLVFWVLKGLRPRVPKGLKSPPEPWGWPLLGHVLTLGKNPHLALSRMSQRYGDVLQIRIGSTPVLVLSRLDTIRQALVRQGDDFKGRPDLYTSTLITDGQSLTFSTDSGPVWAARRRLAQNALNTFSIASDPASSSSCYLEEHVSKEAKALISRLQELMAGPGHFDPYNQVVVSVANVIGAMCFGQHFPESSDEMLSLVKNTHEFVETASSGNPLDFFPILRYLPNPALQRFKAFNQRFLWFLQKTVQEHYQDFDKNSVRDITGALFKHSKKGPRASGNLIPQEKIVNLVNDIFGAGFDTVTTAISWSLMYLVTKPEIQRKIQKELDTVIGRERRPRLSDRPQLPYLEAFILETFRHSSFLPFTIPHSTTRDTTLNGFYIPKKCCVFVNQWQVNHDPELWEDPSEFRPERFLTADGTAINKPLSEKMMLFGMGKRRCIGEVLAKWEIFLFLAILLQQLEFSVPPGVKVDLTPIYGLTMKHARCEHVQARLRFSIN
The data set is described as follows: CYP phenotyping, metabolic stability. It is filed as in vitro ADME. Particulars: CYP1A2 (40 pm/mL). On the procedure:
as §4, §5

In data set [8] the target is CYP2C19 (Homo sapiens, UniProt P33261). Description: CYP phenotyping, metabolic stability. Format: in vitro ADME. As to conditions: CYP2C19 (10 pm/mL); 1 μM; after 60 minutes. The procedure:
(§6) Compounds V and II were exposed to a panel of six CYPs (see Table 5 below).
as §5

In data set [9] the target is CYP2C9 (Homo sapiens, UniProt P11712). Description: CYP phenotyping, metabolic stability. It is filed as in vitro ADME. As to conditions: CYP2C9 (10 pm/mL); 1 μM; after 60 minutes. On the procedure: as §6, §5
The target of data set [10] is CYP2D6 (Homo sapiens, UniProt P10635). The data set is described as follows: CYP phenotyping, metabolic stability. It is filed as in vitro ADME. As to conditions: CYP2D6 (10 pm/mL); 1 μM; after 60 minutes. On the procedure:
as §6, §5

The target of data set [11] is CYP3A4 (Homo sapiens, UniProt P08684). The data set is described as follows: CYP phenotyping, metabolic stability. It is filed as in vitro ADME. Particulars: CYP3A4 (10 pm/mL); 1 μM; after 60 minutes. On the procedure:
as §6, §5

Data set [12] has as its system UTSCC-14 xenograft tumours. Description: UTSCC-14 xenograft study in nu/nu mice. Particulars: 7, 20, 50 mg/kg i.p. daily for 29 days; tumours excised day 40; versus vehicle control. Format: in vivo. On the procedure: The study compared the efficacy of Compound II with a vehicle control in UTSCC-14 xenograft tumours at three different dose levels.
Forty female nu/nu mice (7-9 wks old, weight 20-25 grams) were implanted sc with 2e6 UTSCC-14 cells and randomized 10 days later into […] (Table 1) with an approximate tumour volume of 100-150 mm-3. All groups were dosed daily ip for 29 days. On day 40 tumours were excised and weighed.
The UTSCC-14 cells used in the experiment were sourced from Professor Reidar Grénman's laboratory at the University of Turku, Department of Head and Neck Surgery, Turku University, Turku, Finland) and taken from a grade II primary tumour from the tongue of a head and neck cancer patient.
Compound II was dissolved/suspended in 100% cell culture grade DMSO at 40 mg/ml, before dilution with ddH20 immediately prior to dosing to make a stock 50% DMSO/Water solution. This stock solution was used to prepare all doses by dilution with 50% DMSO/Water to achieve the required concentration.
FIG. 2 compares the weight in grams of tumours excised on day 40 of the study. […] The study provides evidence that Compound II (and related compounds described here) are useful in the development of novel cancer therapies.

Data set [13] deals with C-Met (HGFR) (Homo sapiens, UniProt P08581). Description: Cerep kinase screen. Format: biochemical. As to conditions: read-out: % Inhibition of Control. The procedure:
(§7) Kinase screening was performed by Cerep Laboratories (Celle l′Evescault, France). Compounds were screened in duplicate at a single concentration (10 μM). The results, set forth in Table 4 below, are expressed as percent inhibition of control specific activity: {100−[(measured specific activity/control specific activity)×100]} obtained in the presence of Compound XI and Compound V. ATP concentrations correspond to the ATP Km value for each individual kinase (Cerep, private communication). In each experiment, a reference compound was tested concurrently with Compound XI and Compound V in order to assess the assay reliability. IC50 values for the reference compounds were within accepted limits (±0.5 log units) of the historic average.

In data set [14] the target is CSK (Homo sapiens, UniProt P41240). Description: Cerep kinase screen. Format: biochemical. Particulars: read-out: % Inhibition of Control. The procedure:
as §7

In data set [15] the target is FGFR2 (Homo sapiens, UniProt P21802). The data set is described as follows: Cerep kinase screen. Format: biochemical. Particulars: read-out: % Inhibition of Control. The procedure:
as §7

Data set [16] deals with FGFR4 (Homo sapiens, UniProt P22455). Description: Cerep kinase screen. Format: biochemical. Particulars: read-out: % Inhibition of Control. On the procedure:
as §7

Data set [17] has as its target FLT-1 (Homo sapiens, UniProt P17948). Description: Cerep kinase screen. Format: biochemical. As to conditions: read-out: % Inhibition of Control. On the procedure: as §7
For data set [18], the target named is FLT-3 (Homo sapiens, UniProt P36888). Description: Cerep kinase screen. As to conditions: read-out: % Inhibition of Control. Format: biochemical. The procedure: as §7
Data set [19] deals with Fyn (Homo sapiens, UniProt P06241). Description: Cerep kinase screen. Format: biochemical. As to conditions: read-out: % Inhibition of Control. The procedure:
as §7

In data set [20] the target is KDR (VEGFR2) (Homo sapiens, UniProt P35968). The data set is described as follows: Cerep kinase screen. Format: biochemical. Particulars: read-out: % Inhibition of Control. On the procedure:
as §7

Data set [21] has as its target Lyn (Homo sapiens, UniProt P07948). The data set is described as follows: Cerep kinase screen. Particulars: read-out: % Inhibition of Control. It is filed as biochemical. On the procedure:
as §7

The target of data set [22] is PDGFRβ (Homo sapiens, UniProt P09619). Description: Cerep kinase screen. It is filed as biochemical. Particulars: read-out: % Inhibition of Control. The procedure:
as §7

[23] abbreviates: 96 h, MTS, read-out: CHO/CYP1B1 IC50.

Chain of CYP3A5 (P20815 whole entry, species assumed): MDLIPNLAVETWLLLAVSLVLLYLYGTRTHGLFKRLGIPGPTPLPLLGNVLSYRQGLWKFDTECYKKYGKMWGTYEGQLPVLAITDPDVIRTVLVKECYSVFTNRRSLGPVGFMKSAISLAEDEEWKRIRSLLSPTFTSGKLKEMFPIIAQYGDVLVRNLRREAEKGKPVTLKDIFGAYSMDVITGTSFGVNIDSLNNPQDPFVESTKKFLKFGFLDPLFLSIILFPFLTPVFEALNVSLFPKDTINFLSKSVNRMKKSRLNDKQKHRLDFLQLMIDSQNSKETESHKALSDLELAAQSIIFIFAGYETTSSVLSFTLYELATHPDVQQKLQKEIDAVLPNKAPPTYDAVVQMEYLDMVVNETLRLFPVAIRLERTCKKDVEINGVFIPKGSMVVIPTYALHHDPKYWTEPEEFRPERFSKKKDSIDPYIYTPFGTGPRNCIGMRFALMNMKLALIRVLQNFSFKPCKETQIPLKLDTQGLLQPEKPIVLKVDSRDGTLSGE
Chain of FLT-3 (P36888 27-993, species assumed): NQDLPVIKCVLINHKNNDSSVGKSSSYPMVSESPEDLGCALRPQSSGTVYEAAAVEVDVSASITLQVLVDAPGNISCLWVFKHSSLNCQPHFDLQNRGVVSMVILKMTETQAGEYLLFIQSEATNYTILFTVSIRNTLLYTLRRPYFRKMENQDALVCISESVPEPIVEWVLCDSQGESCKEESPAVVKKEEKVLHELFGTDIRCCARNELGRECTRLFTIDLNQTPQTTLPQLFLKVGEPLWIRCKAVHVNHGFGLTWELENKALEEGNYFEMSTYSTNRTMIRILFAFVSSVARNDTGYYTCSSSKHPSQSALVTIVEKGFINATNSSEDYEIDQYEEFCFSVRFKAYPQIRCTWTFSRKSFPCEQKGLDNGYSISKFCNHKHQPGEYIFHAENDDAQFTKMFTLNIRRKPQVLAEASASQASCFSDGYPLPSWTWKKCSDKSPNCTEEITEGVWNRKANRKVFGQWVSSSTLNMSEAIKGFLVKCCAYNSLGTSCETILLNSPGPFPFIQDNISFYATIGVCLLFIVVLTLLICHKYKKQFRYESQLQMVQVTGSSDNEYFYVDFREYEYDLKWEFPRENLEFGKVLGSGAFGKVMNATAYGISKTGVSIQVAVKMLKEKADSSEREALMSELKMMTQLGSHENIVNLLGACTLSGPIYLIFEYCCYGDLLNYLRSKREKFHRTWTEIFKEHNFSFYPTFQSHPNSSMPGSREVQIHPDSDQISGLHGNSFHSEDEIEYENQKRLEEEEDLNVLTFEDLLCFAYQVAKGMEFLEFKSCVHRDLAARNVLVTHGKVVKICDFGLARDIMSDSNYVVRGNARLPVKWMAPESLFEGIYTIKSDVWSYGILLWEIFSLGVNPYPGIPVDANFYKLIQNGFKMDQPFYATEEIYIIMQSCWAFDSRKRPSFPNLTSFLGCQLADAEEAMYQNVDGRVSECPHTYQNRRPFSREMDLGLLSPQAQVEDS
Chain of CYP2D6 (P10635 whole entry, species assumed): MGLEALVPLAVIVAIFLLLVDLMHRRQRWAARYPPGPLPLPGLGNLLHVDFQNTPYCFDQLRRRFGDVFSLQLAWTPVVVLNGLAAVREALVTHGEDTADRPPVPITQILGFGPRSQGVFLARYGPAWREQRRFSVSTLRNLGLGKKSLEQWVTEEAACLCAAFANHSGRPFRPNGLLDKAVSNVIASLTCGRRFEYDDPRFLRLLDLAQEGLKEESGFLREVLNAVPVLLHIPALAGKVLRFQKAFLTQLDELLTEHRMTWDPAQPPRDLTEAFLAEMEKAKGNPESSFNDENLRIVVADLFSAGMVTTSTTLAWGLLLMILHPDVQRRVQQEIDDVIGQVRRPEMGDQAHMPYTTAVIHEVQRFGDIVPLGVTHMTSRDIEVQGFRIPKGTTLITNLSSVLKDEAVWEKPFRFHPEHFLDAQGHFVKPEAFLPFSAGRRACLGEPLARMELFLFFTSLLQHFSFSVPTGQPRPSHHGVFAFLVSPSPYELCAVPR
Chain of KDR (VEGFR2) (P35968 20-1356, species assumed): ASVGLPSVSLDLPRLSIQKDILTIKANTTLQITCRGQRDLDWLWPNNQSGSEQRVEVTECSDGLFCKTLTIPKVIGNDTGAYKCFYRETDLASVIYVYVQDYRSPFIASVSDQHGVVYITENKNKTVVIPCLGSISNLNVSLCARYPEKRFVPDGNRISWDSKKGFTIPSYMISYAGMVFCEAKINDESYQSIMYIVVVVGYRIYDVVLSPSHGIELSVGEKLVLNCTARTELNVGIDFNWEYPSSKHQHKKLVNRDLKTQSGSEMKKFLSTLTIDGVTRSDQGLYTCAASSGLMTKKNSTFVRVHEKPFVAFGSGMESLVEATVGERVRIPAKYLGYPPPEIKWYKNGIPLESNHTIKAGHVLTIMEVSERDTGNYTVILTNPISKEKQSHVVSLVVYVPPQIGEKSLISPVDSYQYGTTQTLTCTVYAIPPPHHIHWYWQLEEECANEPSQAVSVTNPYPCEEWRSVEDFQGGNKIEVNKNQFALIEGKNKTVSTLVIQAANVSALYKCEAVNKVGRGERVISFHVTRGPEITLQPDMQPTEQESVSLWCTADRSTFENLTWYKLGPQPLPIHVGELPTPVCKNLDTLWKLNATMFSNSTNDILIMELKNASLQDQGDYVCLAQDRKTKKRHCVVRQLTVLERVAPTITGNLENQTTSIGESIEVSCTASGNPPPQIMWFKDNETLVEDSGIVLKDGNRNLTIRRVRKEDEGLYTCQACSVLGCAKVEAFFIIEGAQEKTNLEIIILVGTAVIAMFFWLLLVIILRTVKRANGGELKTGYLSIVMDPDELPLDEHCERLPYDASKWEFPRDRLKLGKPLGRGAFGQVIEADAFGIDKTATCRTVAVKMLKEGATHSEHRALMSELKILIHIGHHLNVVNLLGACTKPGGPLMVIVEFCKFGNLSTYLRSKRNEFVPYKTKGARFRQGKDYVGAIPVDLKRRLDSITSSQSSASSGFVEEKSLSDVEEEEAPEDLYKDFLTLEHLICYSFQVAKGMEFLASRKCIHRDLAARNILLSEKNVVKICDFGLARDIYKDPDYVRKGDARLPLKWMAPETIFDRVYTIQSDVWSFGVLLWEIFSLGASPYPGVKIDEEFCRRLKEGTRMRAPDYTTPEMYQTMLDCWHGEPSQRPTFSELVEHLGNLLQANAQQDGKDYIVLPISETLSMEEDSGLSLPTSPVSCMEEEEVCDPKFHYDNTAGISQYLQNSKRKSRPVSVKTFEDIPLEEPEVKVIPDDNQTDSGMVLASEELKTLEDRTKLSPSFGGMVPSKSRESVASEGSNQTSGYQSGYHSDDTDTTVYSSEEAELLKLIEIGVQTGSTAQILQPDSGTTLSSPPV
Chain of CYP2C19 (P33261 whole entry, species assumed): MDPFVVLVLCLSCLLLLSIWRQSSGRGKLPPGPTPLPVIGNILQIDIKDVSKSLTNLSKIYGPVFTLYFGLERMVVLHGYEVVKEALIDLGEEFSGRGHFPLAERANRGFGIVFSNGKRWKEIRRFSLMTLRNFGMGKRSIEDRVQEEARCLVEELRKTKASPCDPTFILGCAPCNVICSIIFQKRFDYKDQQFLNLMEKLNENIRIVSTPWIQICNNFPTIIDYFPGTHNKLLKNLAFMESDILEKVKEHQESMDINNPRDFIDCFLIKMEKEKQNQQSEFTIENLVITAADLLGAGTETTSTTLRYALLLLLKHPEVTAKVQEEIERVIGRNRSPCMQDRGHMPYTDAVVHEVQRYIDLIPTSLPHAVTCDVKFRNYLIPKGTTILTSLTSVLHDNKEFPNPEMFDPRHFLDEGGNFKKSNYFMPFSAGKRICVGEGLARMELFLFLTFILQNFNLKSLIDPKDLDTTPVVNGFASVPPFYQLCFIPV
Chain of PDGFRβ (P09619 33-1106, species assumed): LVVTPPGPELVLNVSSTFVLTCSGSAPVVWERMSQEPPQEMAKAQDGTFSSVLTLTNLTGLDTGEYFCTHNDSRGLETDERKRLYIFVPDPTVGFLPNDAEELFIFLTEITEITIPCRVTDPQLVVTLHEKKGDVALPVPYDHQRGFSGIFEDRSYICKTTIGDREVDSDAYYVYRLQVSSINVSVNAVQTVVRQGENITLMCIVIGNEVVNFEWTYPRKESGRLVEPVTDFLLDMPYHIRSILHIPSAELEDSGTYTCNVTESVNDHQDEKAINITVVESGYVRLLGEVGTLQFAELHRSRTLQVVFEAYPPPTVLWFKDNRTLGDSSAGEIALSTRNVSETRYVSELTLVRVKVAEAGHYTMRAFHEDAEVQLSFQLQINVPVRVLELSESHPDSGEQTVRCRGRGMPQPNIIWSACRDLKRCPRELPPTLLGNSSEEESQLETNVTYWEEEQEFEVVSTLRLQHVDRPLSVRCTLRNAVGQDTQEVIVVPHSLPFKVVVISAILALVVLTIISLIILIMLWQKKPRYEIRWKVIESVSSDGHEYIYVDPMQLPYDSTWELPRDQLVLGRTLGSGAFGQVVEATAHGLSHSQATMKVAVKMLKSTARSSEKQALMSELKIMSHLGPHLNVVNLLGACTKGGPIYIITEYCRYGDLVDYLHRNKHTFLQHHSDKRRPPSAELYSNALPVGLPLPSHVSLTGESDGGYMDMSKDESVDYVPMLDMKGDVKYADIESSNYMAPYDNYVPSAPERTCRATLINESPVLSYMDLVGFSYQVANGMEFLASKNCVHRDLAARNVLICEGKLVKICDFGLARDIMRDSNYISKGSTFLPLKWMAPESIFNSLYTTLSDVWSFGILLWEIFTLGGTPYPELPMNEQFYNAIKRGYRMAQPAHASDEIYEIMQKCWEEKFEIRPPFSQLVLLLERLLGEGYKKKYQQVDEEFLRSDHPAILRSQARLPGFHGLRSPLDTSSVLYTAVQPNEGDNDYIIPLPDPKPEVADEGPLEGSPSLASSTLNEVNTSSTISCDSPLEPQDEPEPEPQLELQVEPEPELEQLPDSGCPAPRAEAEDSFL

Take `COc1ccc(-c2cc(-c3ccc4c(c3)OCO4)cc(=O)[nH]2)c(OC)c1` [Compound III]: the IC50 in [1] amounted to 6110 ± 340 nM. Moreover, the results for the IC50 at 96 h in [2] and in data set [4] (setting [23]) were 950 ± 350 nM and 40 ± 30 nM, respectively. Also, in data set [3], the “toxicity / activity in CYP1A1 expressing CHO cells (in words)” value (shortened to “toxicity / activity”) is reported as “active”. In data set [5], the “activity against CHO/CYP1B1 cells (in words)” value is recorded as “active”.

In the case of `COc1ccc(-c2cc(-c3ccc4c(c3)OCO4)cc(=O)[nH]2)cc1` [Compound VI], the “toxicity to wild-type CHO cells (in words)” value in data set [1] was “non toxic”. Further, the IC50 in data set [1] is above 100000 nM. Also, the IC50 at 96 h is above 100000 nM in data set [2] and 500 nM in [4] (text of b216, read-out: IC50, proliferation of CHO/CYP1B1 cells). Further, the “toxicity / activity” value in [3] is “non toxic”. In addition, the “activity against CHO/CYP1B1 cells (in words)” value in [5] is given as “strongly inhibit proliferation”.

Consider `Cc1ncc2n1-c1ccc(Cl)cc1C(c1ccccc1F)=NC2` [Midazolam, reference compound], for which the “% Reference Compound Remaining” value in [6] (reference compound) came out at 1%.

For `CCOc1ccc2nc3ccc(=O)cc-3oc2c1` [Ethoxy-resorufin, 7-ethoxyresorufin, reference compound], the “% Reference Compound Remaining” value in data set [7] (reference compound) was 0%.

Take `CCCOc1ccc(-c2cc(-c3ccc(OC)c(OC)c3)[nH]c(=O)c2)cc1` [Compound II]: in [1], the “toxicity to wild-type CHO cells (in words)” value is “non toxic”. For the same compound, the IC50 in data set [1] was above 50000 nM. Further, the IC50 at 96 h is above 50000 nM in data set [2] and 90 ± 50 nM in data set [4] (setting [23]). Besides, the “toxicity / activity” value in [3] is recorded as “non toxic”. The “activity against CHO/CYP1B1 cells (in words)” value in [5] was “strongly inhibit proliferation”. Besides, the “Mean Parent Remaining (%)” value was determined as 127% in data set [8]; 130% in data set [9]; 127% in [10]; 122% in data set [11]; 69% in data set [7] (1 μM, after 60 minutes); 126% in [6] (1 μM, after 60 minutes). The “wet tumour weight at the end of the study (FIG. 2)” value in data set [12] is listed as “dose dependent reduction in wet tumour weight”.

One may read the inhibition as the change of the read-out against control, counted positive when it falls. On to `COc1ccc(-c2cc(-c3ccc(O)c(O)c3)cc(=O)[nH]2)cc1OC` [Compound XI], for which the inhibition at 10 µM in data set [13] came out at 58%; in data set [14], 98%; in data set [15] it was 98%; in data set [16] it was 85%; in data set [17], 98%; in data set [18], 93%. In addition, the inhibition at 10 µM is 100% in data set [19], 96% in data set [20], 99% in data set [21] and 91% in data set [22].
